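Five compound concentrations were applied to cells in 96-well plates for 48 hours; endpoints were derived by simple linear interpolation of the resulting dose-response curve. GI50 = concentration required for 50% inhibition of growth.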 The source made the active and inactive calls. Rule as the data show it: active = GI50 up to about 1.1 µM and inactive = higher.
Experiments:
Assay in all cases: NCI tumour cell line growth inhibition, 48 h
U-251 = system: U-251
OVCAR-8 = system: OVCAR-8
SW-620 = system: SW-620
SF-295 = system: SF-295
HCT-116 = system: HCT-116
SK-MEL-28 = system: SK-MEL-28
SK-MEL-5 = system: SK-MEL-5
K562 = system: K562
HL-60 = system: HL-60
M14 = system: M14
HCC 2998 = system: HCC 2998
SK-OV-3 = system: SK-OV-3
NCI-H460 = system: NCI-H460
SF-268 = system: SF-268
DU-145 = system: DU-145
SNB-75 = system: SNB-75
UO-31 = system: UO-31
MDA-MB-231 = system: MDA-MB-231
SN12C = system: SN12C
UACC-62 = system: UACC-62
SR = system: SR
EKVX = system: EKVX
Hs-578T = system: Hs-578T
RXF 393 = system: RXF 393
HCT-15 = system: HCT-15
UACC-257 = system: UACC-257
SK-MEL-2 = system: SK-MEL-2
Malme-3M = system: Malme-3M
COLO 205 = system: COLO 205
OVCAR-4 = system: OVCAR-4
CCRF-CEM = system: CCRF-CEM
BT-549 = system: BT-549
PC-3 = system: PC-3
NCI-H23 = system: NCI-H23
HOP-62 = system: HOP-62
T47D = system: T47D
CAKI-1 = system: CAKI-1
IGROV-1 = system: IGROV-1
786-0 = system: 786-0
OVCAR-5 = system: OVCAR-5
HT-29 = system: HT-29
TK-10 = system: TK-10
MDA-N = system: MDA-N
MCF7 = system: MCF7
LOX IMVI = system: LOX IMVI
SNB-19 = system: SNB-19
ACHN = system: ACHN
SF-539 = system: SF-539
NCI-H522 = system: NCI-H522
KM12 = system: KM12
NCI-H226 = system: NCI-H226
MOLT-4 = system: MOLT-4
NCI/ADR-RES = system: NCI/ADR-RES
A549 = system: A549

SMILES: CC(=O)C(C)(C)CCC(C)(C)C(C)=O
- GI50 (U-251): > 100 µM (inactive)
- GI50 (OVCAR-8): > 100 µM (inactive)
- GI50 (SW-620): > 100 µM (inactive)
- GI50 (SF-295): > 100 µM (inactive)
- GI50 (HCT-116): > 100 µM (inactive)
- GI50 (SK-MEL-28): > 100 µM (inactive)
- GI50 (SK-MEL-5): > 100 µM (inactive)
- GI50 (K562): > 100 µM (inactive)
- GI50 (HL-60): > 100 µM (inactive)
- GI50 (M14): > 100 µM (inactive)
- GI50 (HCC 2998): > 100 µM (inactive)
- GI50 (SK-OV-3): > 100 µM (inactive)
- GI50 (NCI-H460): > 100 µM (inactive)
- GI50 (SF-268): > 100 µM (inactive)
- GI50 (DU-145): > 100 µM (inactive)
- GI50 (SNB-75): > 100 µM (inactive)
- GI50 (UO-31): > 100 µM (inactive)
- GI50 (MDA-MB-231): > 100 µM (inactive)
- GI50 (SN12C): > 100 µM (inactive)
- GI50 (UACC-62): > 100 µM (inactive)
- GI50 (SR): > 100 µM (inactive)
- GI50 (EKVX): > 100 µM (inactive)
- GI50 (Hs-578T): > 100 µM (inactive)
- GI50 (RXF 393): < 0.01 µM (active)
- GI50 (HCT-15): > 100 µM
- GI50 (UACC-257): > 100 µM (inactive)
- GI50 (SK-MEL-2): > 100 µM (inactive)
- GI50 (Malme-3M): > 100 µM (inactive)
- GI50 (COLO 205): > 100 µM (inactive)
- GI50 (OVCAR-4): > 100 µM (inactive)
- GI50 (CCRF-CEM): > 100 µM (inactive)
- GI50 (BT-549): > 100 µM (inactive)
- GI50 (PC-3): > 100 µM (inactive)
- GI50 (NCI-H23): > 100 µM (inactive)
- GI50 (HOP-62): > 100 µM (inactive)
- GI50 (T47D): > 100 µM (inactive)
- GI50 (CAKI-1): > 100 µM (inactive)
- GI50 (IGROV-1): > 100 µM (inactive)
- GI50 (786-0): > 100 µM (inactive)
- GI50 (OVCAR-5): > 100 µM (inactive)
- GI50 (HT-29): > 100 µM (inactive)
- GI50 (TK-10): > 100 µM (inactive)
- GI50 (MDA-N): > 100 µM (inactive)
- GI50 (MCF7): > 100 µM (inactive)
- GI50 (LOX IMVI): > 100 µM (inactive)
- GI50 (SNB-19): > 100 µM (inactive)
- GI50 (ACHN): > 100 µM (inactive)
- GI50 (SF-539): > 100 µM (inactive)
- GI50 (NCI-H522): > 100 µM (inactive)
- GI50 (KM12): > 100 µM (inactive)
- GI50 (NCI-H226): > 100 µM (inactive)
- GI50 (MOLT-4): > 100 µM (inactive)
- GI50 (NCI/ADR-RES): > 100 µM (inactive)
- GI50 (A549): > 100 µM (inactive)

SMILES: CC(C1CCCC1=O)C1CCCC1=O (stereo not drawn)
- GI50 (U-251): > 100 µM (inactive)
- GI50 (OVCAR-8): > 100 µM (inactive)
- GI50 (SW-620): > 100 µM (inactive)
- GI50 (SF-295): > 100 µM (inactive)
- GI50 (HCT-116): > 100 µM (inactive)
- GI50 (SK-MEL-28): > 100 µM (inactive)
- GI50 (SK-MEL-5): > 100 µM (inactive)
- GI50 (K562): > 100 µM (inactive)
- GI50 (HL-60): > 100 µM (inactive)
- GI50 (M14): > 100 µM (inactive)
- GI50 (HCC 2998): > 100 µM (inactive)
- GI50 (SK-OV-3): > 100 µM (inactive)
- GI50 (NCI-H460): > 100 µM (inactive)
- GI50 (SF-268): > 100 µM (inactive)
- GI50 (DU-145): > 100 µM (inactive)
- GI50 (SNB-75): > 100 µM (inactive)
- GI50 (UO-31): > 100 µM (inactive)
- GI50 (MDA-MB-231): > 100 µM (inactive)
- GI50 (SN12C): > 100 µM (inactive)
- GI50 (UACC-62): > 100 µM (inactive)
- GI50 (SR): > 100 µM (inactive)
- GI50 (EKVX): > 100 µM (inactive)
- GI50 (Hs-578T): 92 µM (inactive)
- GI50 (RXF 393): > 100 µM (inactive)
- GI50 (HCT-15): > 100 µM
- GI50 (UACC-257): > 100 µM (inactive)
- GI50 (SK-MEL-2): > 100 µM (inactive)
- GI50 (Malme-3M): > 100 µM (inactive)
- GI50 (COLO 205): > 100 µM (inactive)
- GI50 (OVCAR-4): > 100 µM (inactive)
- GI50 (CCRF-CEM): > 100 µM (inactive)
- GI50 (BT-549): > 100 µM (inactive)
- GI50 (PC-3): > 100 µM (inactive)
- GI50 (NCI-H23): > 100 µM (inactive)
- GI50 (HOP-62): > 100 µM (inactive)
- GI50 (T47D): > 100 µM (inactive)
- GI50 (CAKI-1): > 100 µM (inactive)
- GI50 (IGROV-1): > 100 µM (inactive)
- GI50 (786-0): > 100 µM (inactive)
- GI50 (OVCAR-5): > 100 µM (inactive)
- GI50 (HT-29): > 100 µM (inactive)
- GI50 (TK-10): > 100 µM (inactive)
- GI50 (MDA-N): > 100 µM (inactive)
- GI50 (MCF7): > 100 µM (inactive)
- GI50 (LOX IMVI): > 100 µM (inactive)
- GI50 (SNB-19): > 100 µM (inactive)
- GI50 (ACHN): > 100 µM (inactive)
- GI50 (SF-539): > 100 µM (inactive)
- GI50 (NCI-H522): > 100 µM (inactive)
- GI50 (KM12): > 100 µM (inactive)
- GI50 (NCI-H226): > 100 µM (inactive)
- GI50 (MOLT-4): > 100 µM (inactive)
- GI50 (NCI/ADR-RES): > 100 µM (inactive)
- GI50 (A549): > 100 µM (inactive)

— ChEMBL document CHEMBL1201862, “PubChem BioAssay data set” (2004)
